# Reference: PMC10283505, “CVM-1118 (foslinanib), a 2-phenyl-4-quinolone derivative, promotes apoptosis and inhibits vasculogenic mimicry via targeting TRAP1” (Pathology and Oncology Research, 2023)
# Experiments:
# PC-3 = test: NCI 60 cytotoxicity screening; format: cell-based; conditions: Homo sapiens; PC-3, Prostate
# Integrin beta-2 (CD18) = Integrin beta-2 (CD18) (Homo sapiens, UniProt P05107); test: Surface plasmon resonance (Biacore); format: binding; conditions: CD18, SPR
# NCI/ADR-RES = test: NCI 60 cytotoxicity screening; format: cell-based; conditions: Homo sapiens, Ovarian
# A549/ATCC = test: NCI 60 cytotoxicity screening; format: cell-based; conditions: Homo sapiens, NSCLC
# SK-MEL-5 = test: NCI 60 cytotoxicity screening; format: cell-based; conditions: Homo sapiens; SK-MEL-5, Melanoma
# RXF 393 = test: NCI 60 cytotoxicity screening; format: cell-based; conditions: Homo sapiens; RXF 393, Renal
# SNB-19 = test: NCI 60 cytotoxicity screening; format: cell-based; conditions: Homo sapiens; SNB-19, CNS
# MDA-MB-231 = test: Succinate level (Abcam kit, hypoxia); format: cell-based, human; conditions: MDA-MB-231, 100 nM, 72 h, vs vehicle control
# Protocol: (§1) Succinate levels in the cells were assessed using the Abcam assay kit (ab204718). Cells were grown under hypoxic conditions (1% O2) at 37°C using a ProOx P110 Oxygen Controller (BioSpherix) and hypoxia chamber to establish a consistent and steady expression of HIF-1α in these cells for the experiments. At 80% confluence, cells were rinsed with phosphate buffered saline (PBS; 137 mM NaCl/2.7 mM KCl/10 mM Na2HPO4/1.8 mM KH2PO4, pH 7.4), then harvested by scrapping into a modified radio-immunoprecipitation assay (RIPA) buffer (100 mM Tris-HCl, 150 mM NaCl, 1% deoxycholate, 1% Triton X-100, 0.1% SDS, pH 7.4) plus protease inhibitor cocktail (Complete Mini; Roche) using 100 μL buffer per 1 × 10^6 cells. After sonication using a Fisher sonic dismembrator with microprobe (Fisher Scientific; five pulses at 2 s intervals) and centrifugation at 13,000 rpm for 30 min, the protein lysates (supernatants) were recovered, and protein concentrations determined using a bicinchoninic acid (BCA) assay (Bio-Rad). The samples were then deproteinated using Abcam 10 kDa Spin Columns (ab93349; which reduced the protein concentration by about 90%) and the samples were standardized at <10 μg of protein per sample per 50 μL of assay volume (as directed by the Abcam technical response team for working with these samples). The concentration of succinate (nmol/μL or μmol/mL or […]) for each sample was calculated after subtracting a background control (which was the sample run with assay buffer in place of the succinate converter component to account for and subtract any contaminating signal generated by NADH), as follows: Succinate = (A/B) × D; where: A = Amount of succinate (succinic acid) from the Standard Curve; B = Sample volume added into the reaction well (μL); D = Sample dilution factor. Two separate experiments were performed for each cell line.
# COLO205 = test: Succinate level (Abcam kit, hypoxia); format: cell-based, human; conditions: COLO205, 100 nM, 72 h, vs vehicle control
# Protocol: as §1
# SK-MEL28 = test: Succinate level (Abcam kit, hypoxia); format: cell-based, human; conditions: SK-MEL28, 100 nM, 72 h, vs vehicle control
# Protocol: as §1
# SKOV3 = test: Succinate level (Abcam kit, hypoxia); format: cell-based, human; conditions: SKOV3, 100 nM, 72 h, vs vehicle control
# Protocol: as §1
# HIF-1α = test: Western blot of HIF-1α protein (hypoxia); format: cell-based, human; conditions: hypoxia 72 h
# Protocol: Changes in the expression HIF-1α protein in SK-MEL28, SK-OV3, MDA-MB-231 and COLO205 cells in response to treatment with CVM-1125 was performed as follows: 5.0 × 10^6 cells were grown under hypoxic conditions (as previously described) for 72 h, with or without 100 nM CVM-1125 in T175 culture flasks, then sub-confluent cultures harvested and whole cell protein lysates prepared and analyzed by Western blot (as above). Thirty micrograms of protein was loaded per lane of the gel for each sample followed by detection of HIF-1α protein on the final blot using a polyclonal rabbit anti- HIF-1α antibody (#3716; Cell Signaling Technologies), secondary antibody plus HRP (NA934V), then ECL. The blots were then stripped and re-probed for β-actin protein as a control (as above).
# Nodal = test: qPCR analysis of Nodal expression; format: cell-based, human; conditions: C8161, 10 nM, 8–72 h
# Protocol: For the qPCR analysis of Nodal and Notch expression, total RNA was isolated from cells using the PerfectPure RNA Cell Isolation kit (5Prime) and then reverse-transcribed using 1 μg RNA, RT master mix cocktail and MMLV reverse transcriptase. qPCR was performed on a 7500 Real-Time PCR System (Life Technologies) using manufacturer recommended protocol. TaqMan gene expression human primer/probe sets (Applied Biosystems) utilized were Nodal (Hs00250630_s1) and Notch4 (Hs00270200_m1). Target gene expression was normalized to appropriate house-keeping genes (e.g., RPLP0 or GAPDH). Data was analyzed using Life Technologies Sequence Detection Software.
# Integrin beta-2 (CD18), sequence (P05107 23-769): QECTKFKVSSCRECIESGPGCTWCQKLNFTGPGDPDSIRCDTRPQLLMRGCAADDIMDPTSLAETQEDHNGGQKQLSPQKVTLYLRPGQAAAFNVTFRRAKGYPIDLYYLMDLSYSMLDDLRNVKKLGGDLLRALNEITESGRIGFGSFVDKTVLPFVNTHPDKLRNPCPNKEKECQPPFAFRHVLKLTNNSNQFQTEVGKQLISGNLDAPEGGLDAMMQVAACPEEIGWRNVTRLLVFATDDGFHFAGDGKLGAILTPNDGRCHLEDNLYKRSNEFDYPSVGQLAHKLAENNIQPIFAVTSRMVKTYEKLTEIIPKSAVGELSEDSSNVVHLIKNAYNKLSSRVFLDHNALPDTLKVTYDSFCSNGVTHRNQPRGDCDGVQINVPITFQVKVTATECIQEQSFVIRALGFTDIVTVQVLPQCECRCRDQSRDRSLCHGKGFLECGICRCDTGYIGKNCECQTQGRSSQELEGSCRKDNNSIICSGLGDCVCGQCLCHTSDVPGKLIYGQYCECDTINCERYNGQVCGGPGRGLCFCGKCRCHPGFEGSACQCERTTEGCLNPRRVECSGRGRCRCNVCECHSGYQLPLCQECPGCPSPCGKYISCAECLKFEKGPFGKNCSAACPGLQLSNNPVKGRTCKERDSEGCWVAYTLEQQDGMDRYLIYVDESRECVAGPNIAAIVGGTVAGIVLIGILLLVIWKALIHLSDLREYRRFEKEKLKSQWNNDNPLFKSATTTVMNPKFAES
compound,measurement,setting,value
COc1ccc2[nH]c(-c3cccc(F)c3)cc(=O)c2c1O [CVM-1125],GI50,PC-3,32.6 nM
same,Dissociation (kd),Integrin beta-2 (CD18),1.08e-05 s⁻¹
same,kon,Integrin beta-2 (CD18); read-out: Association (ka),14.4 M⁻¹ s⁻¹
same,Kd,Integrin beta-2 (CD18); read-out: KD (kd/ka),748 nM
same,GI50,NCI/ADR-RES,20.8 nM
same,GI50,A549/ATCC,41.4 nM
same,GI50,SK-MEL-5,29.8 nM
same,GI50,RXF 393,17.5 nM
same,GI50,SNB-19,28.8 nM
same,reduction of succinate levels,MDA-MB-231,20%
same,reduction of succinate levels,COLO205,18%
same,reduction of succinate levels,SK-MEL28,23%
same,reduction of succinate levels,SKOV3,35%
same,reduction of HIF-1α protein levels,"HIF-1α; COLO205, 100 nM",9%
same,reduction of HIF-1α protein levels,"HIF-1α; MDA-MB-231, 100 nM",17%
same,reduction of HIF-1α protein levels,"HIF-1α; SK-MEL28, 100 nM",28%
same,reduction of HIF-1α protein levels,"HIF-1α; SKOV3, 100 nM",25%
COc1ccc2[nH]c(-c3cccc(F)c3)cc(=O)c2c1OP(=O)(O)O [CVM-1118],expression of Nodal (mRNA),Nodal,decreased
